From patent publication EP3909578A1, “ANTIVIRAL COMPOSITION COMPRISING EEYARESTATIN I” (Universidad de Castilla la Mancha, priority 2020, dated 2021)
Like-named read-outs stand apart in the source and are kept apart here.

Key:
Zika virus [1] = test: Virucidal activity: cell-free incubation of virus sample with drug at 37°C, then TCID50 titration; settings: for virucidal activity (loss of viral infectivity): incubation at 37°C in the absence of cells, EEY 10 µM, XAN 10 µM, AMA 800 µM for 4 hours, or 6 µM over time
Description: (§1) • Figure 1. Schematic representation of flavivirus life cycle and steps inhibited by eeyarestatin I. The antiviral effect observed during treatment with eeyarestatin I can be due to the inhibition of at least three different steps of the life cycle (indicated with a red star and highlighted in red letters). A, Inhibition of the valosin-containing protein / p97 ATPase (VCP/p97) and/or ERAD pathway indirectly affects virus replication on ER factories. B, Inhibition of VCP/p97 affects virus uncoating. C, Novel mechanism of action described in this invention: eeyarestatin I reduces virus particle infectivity before entering the cell (discovery patented here). • Figure 2. Cell viability after exposure to VCP/p97 inhibitors. Viability of Vero (African green monkey kidney fibroblasts) cells treated with VCP/p97 inhibitors xanthohumol (XAN) and eeyarestatin I (EEY) during 24 (A) or 48 hours (B). Cellular viability is represented as the percentage of metabolically active cells relative to mock-treated cells (CellTiter-Blue Cell Viability Assay, Promega). There are given the 50% cytotoxicity concentration (CC50) values for each drug and exposure time tested. • Figure 3. VCP/p97 drugs Xanthohumol and eeyarestatin I inhibit virus replication in cell culture (Vero cells). Virus titres measured by 50% tissue culture infectious dose (TCID50) in the supernatants of Zika virus-infected cells. A, Schematic representation of the assay. A monolayer of Vero cells was inoculated with Zika virus at a multiplicity of infection (MOI) of 1 TCID50 per cell (input). After 1 hour of incubation at 37°C, to allow virus adsorption, the supernatant was removed, the cells washed, and fresh media containing each drug at the concentrations indicated was added. At 24 hours post infection the cellular supernatants were collected (virus progeny) and the virus yields quantified by TCID50 (virus titration). B-C, Changes in virus titres and cell viability in cultures treated with increasing concentrations of eeyarestatin I (B) and xanthohumol (C) for 24 hours. The 50% inhibitory concentration (IC50) and the selectivity index (SI) values are provided for each drug. […] A, Schematic representation of the assay. The virus sample is directly incubated at 37°C in the presence of increasing concentrations of drugs. The treated sample is collected at different time points and directly titrated by TCID50. B-D Decrease in infectivity observed in a virus sample treated with amantadine (AMA), xanthohumol (XAN) or eeyarestatin I (EEY) and compared to a virus sample untreated (no drug) or mock-treated with vehicle (DMSO). B, Zika virus was incubated during 4 hours at 37°C in the presence of EEY (10 µM), XAN (10 µM), AMA (800 µM) or in the absence of drugs. C, Changes in the infectivity along time of a Zika virus sample incubated at 37°C in the presence of 6 µM EEY or XAN, or in the absence of drugs (No drug, DMSO). D, Changes in Usutu virus infectivity along time for a sample incubated at 37°C in the presence of 6 µM EEY or XAN, or in the absence of drugs (No drug, DMSO). • Figure 5. Eeyarestatin I exerts virucidal activity in a dose-dependent manner. […] Eeyarestatin I half maximum inhibitory concentration (IC50) is <1 µM for both Zika (A) and Usutu (B) viruses. • Figure 6. […] A, Schematic representation of the procedure to select adapted virus. In each virus passage, 100 µl of neat virus from the previous passage are inoculated to a monolayer of 10^5 Vero cells. After cell wash, the monolayer is incubated at 37°C and 5% CO2 in 1 ml of media (DMEM, 10% foetal bovine serum, 100 units penicillin-streptomycin) in the presence (EEY-adapted) or absence (untreated) of 5 µM eeyarestatin I. At 48 hours post-infection, the cellular supernatants are collected, titrated, and employed for the following virus passage. This process is repeated for a total of nine viral transfers. […]

[2] = tested on: Zika virus passaged during nine consecutive transfers (p9); test: Virucidal activity on Zika virus populations after nine passages with or without 5 µM eeyarestatin I (resistance selection)
Description: • Figure 1. Schematic representation of flavivirus life cycle and steps inhibited by eeyarestatin I. The antiviral effect observed during treatment with eeyarestatin I can be due to the inhibition of at least three different steps of the life cycle (indicated with a red star and highlighted in red letters). A, Inhibition of the valosin-containing protein / p97 ATPase (VCP/p97) and/or ERAD pathway indirectly affects virus replication on ER factories. B, Inhibition of VCP/p97 affects virus uncoating. C, Novel mechanism of action described in this invention: eeyarestatin I reduces virus particle infectivity before entering the cell (discovery patented here). • Figure 2. Cell viability after exposure to VCP/p97 inhibitors. Viability of Vero (African green monkey kidney fibroblasts) cells treated with VCP/p97 inhibitors xanthohumol (XAN) and eeyarestatin I (EEY) during 24 (A) or 48 hours (B). Cellular viability is represented as the percentage of metabolically active cells relative to mock-treated cells (CellTiter-Blue Cell Viability Assay, Promega). There are given the 50% cytotoxicity concentration (CC50) values for each drug and exposure time tested. • Figure 3. VCP/p97 drugs Xanthohumol and eeyarestatin I inhibit virus replication in cell culture (Vero cells). Virus titres measured by 50% tissue culture infectious dose (TCID50) in the supernatants of Zika virus-infected cells. A, Schematic representation of the assay. A monolayer of Vero cells was inoculated with Zika virus at a multiplicity of infection (MOI) of 1 TCID50 per cell (input). After 1 hour of incubation at 37°C, to allow virus adsorption, the supernatant was removed, the cells washed, and fresh media containing each drug at the concentrations indicated was added. At 24 hours post infection the cellular supernatants were collected (virus progeny) and the virus yields quantified by TCID50 (virus titration). B-C, Changes in virus titres and cell viability in cultures treated with increasing concentrations of eeyarestatin I (B) and xanthohumol (C) for 24 hours. The 50% inhibitory concentration (IC50) and the selectivity index (SI) values are provided for each drug. […] A, Schematic representation of the assay. The virus sample is directly incubated at 37°C in the presence of increasing concentrations of drugs. The treated sample is collected at different time points and directly titrated by TCID50. B-D Decrease in infectivity observed in a virus sample treated with amantadine (AMA), xanthohumol (XAN) or eeyarestatin I (EEY) and compared to a virus sample untreated (no drug) or mock-treated with vehicle (DMSO). B, Zika virus was incubated during 4 hours at 37°C in the presence of EEY (10 µM), XAN (10 µM), AMA (800 µM) or in the absence of drugs. […]

Usutu virus = test: Virucidal activity: cell-free incubation of virus sample with drug at 37°C, then TCID50 titration; settings: for virucidal activity (loss of viral infectivity): incubation at 37°C in the absence of cells, 6 µM over time
Description: as §1

Vero cells = test: Cell viability of Vero cells after exposure to VCP/p97 inhibitors (CellTiter-Blue Cell Viability Assay); type: cell-based, African green monkey
Description: • Figure 1. Schematic representation of flavivirus life cycle and steps inhibited by eeyarestatin I. The antiviral effect observed during treatment with eeyarestatin I can be due to the inhibition of at least three different steps of the life cycle (indicated with a red star and highlighted in red letters). A, Inhibition of the valosin-containing protein / p97 ATPase (VCP/p97) and/or ERAD pathway indirectly affects virus replication on ER factories. B, Inhibition of VCP/p97 affects virus uncoating. C, Novel mechanism of action described in this invention: eeyarestatin I reduces virus particle infectivity before entering the cell (discovery patented here). • Figure 2. Cell viability after exposure to VCP/p97 inhibitors. Viability of Vero (African green monkey kidney fibroblasts) cells treated with VCP/p97 inhibitors xanthohumol (XAN) and eeyarestatin I (EEY) during 24 (A) or 48 hours (B). Cellular viability is represented as the percentage of metabolically active cells relative to mock-treated cells (CellTiter-Blue Cell Viability Assay, Promega). […] Virus titres measured by 50% tissue culture infectious dose (TCID50) in the supernatants of Zika virus-infected cells. […] At 24 hours post infection the cellular supernatants were collected (virus progeny) and the virus yields quantified by TCID50 (virus titration). […]

Zika virus [3] = test: Inhibition of Zika virus replication in infected Vero cell culture (MOI 1, virus yield by TCID50); type: cell-based; settings: for Zika virus replication during infections in cell culture: Vero cells, MOI of 1, drug added after 1 hour adsorption, 24 hours post infection
Description: • Figure 1. Schematic representation of flavivirus life cycle and steps inhibited by eeyarestatin I. The antiviral effect observed during treatment with eeyarestatin I can be due to the inhibition of at least three different steps of the life cycle (indicated with a red star and highlighted in red letters). A, Inhibition of the valosin-containing protein / p97 ATPase (VCP/p97) and/or ERAD pathway indirectly affects virus replication on ER factories. B, Inhibition of VCP/p97 affects virus uncoating. C, Novel mechanism of action described in this invention: eeyarestatin I reduces virus particle infectivity before entering the cell (discovery patented here). • Figure 2. Cell viability after exposure to VCP/p97 inhibitors. Viability of Vero (African green monkey kidney fibroblasts) cells treated with VCP/p97 inhibitors xanthohumol (XAN) and eeyarestatin I (EEY) during 24 (A) or 48 hours (B). Cellular viability is represented as the percentage of metabolically active cells relative to mock-treated cells (CellTiter-Blue Cell Viability Assay, Promega). There are given the 50% cytotoxicity concentration (CC50) values for each drug and exposure time tested. • Figure 3. VCP/p97 drugs Xanthohumol and eeyarestatin I inhibit virus replication in cell culture (Vero cells). Virus titres measured by 50% tissue culture infectious dose (TCID50) in the supernatants of Zika virus-infected cells. A, Schematic representation of the assay. A monolayer of Vero cells was inoculated with Zika virus at a multiplicity of infection (MOI) of 1 TCID50 per cell (input). After 1 hour of incubation at 37°C, to allow virus adsorption, the supernatant was removed, the cells washed, and fresh media containing each drug at the concentrations indicated was added. At 24 hours post infection the cellular supernatants were collected (virus progeny) and the virus yields quantified by TCID50 (virus titration). B-C, Changes in virus titres and cell viability in cultures treated with increasing concentrations of eeyarestatin I (B) and xanthohumol (C) for 24 hours. […]

[4] = cell-free incubation at 37°C, listed as Eeyarestatin I, read-out: IC50 (virucidal activity)
[5] = cell-free incubation at 37°C, read-out: IC50 (virucidal activity)

Row | Compound | virucidal activity (loss of viral infectivity) (Zika virus [1]) | IC50 ([2]; EEY-adapted Zika virus p9 (nine passages in 5 µM eeyarestatin I), 37°C for 4 hours) | IC50 ([2]; adapted Zika virus population (passaged 9 times in the presence of eeyarestatin I)) | IC50 ([2]; untreated Zika virus p9 (nine passages without drug), 37°C for 4 hours) | IC50 ([2]; untreated Zika virus population (nine passages in the absence of drugs)) | IC50 (Zika virus [1]; [4]) | IC50 (Zika virus [1]; [5]) | IC50 (Zika virus [1]; time = 4 hours, read-out: estimated inhibitory constant) | IC50 (Usutu virus; [4]) | IC50 (Usutu virus; [5]) | virucidal activity (loss of viral infectivity) (Usutu virus) | IC50 (Usutu virus; time = 4 hours, read-out: estimated IC50) | toxicity in cell culture (Vero cells; 5 µM eeyarestatin I) | CC50 (Vero cells; time = 24 hours, read-out: 50% toxicity for Vero cells (CC50)) | Zika virus replication during infections in cell culture (Zika virus [3]) | selectivity index (ratio of CC50 and IC50) (Zika virus [3]; Zika virus replication in Vero cells)
1 | NC12CC3CC(CC(C3)C1)C2 [amantadine, reference compound] | did not affect viral infectivity | – | – | – | – | – | – | – | – | – | – | – | – | – | – | –
2 | CC1(C)C(N(O)C(=O)Nc2ccc(Cl)cc2)N(c2ccc(Cl)cc2)C(=O)N1CC(=O)N/N=C/C=C/c1ccc([N+](=O)[O-])o1 (centres unmarked) [eeyarestatin I] | significant loss of infectivity | 130 nM | 130 nM | 310 nM | 310 nM | < 1000 nM | 590 nM | < 600 nM | < 1000 nM | 150 nM | inhibits Usutu virus infectivity | 150 nM | very modest toxicity | 24 µM | inhibit Zika virus replication | –
3 | COc1cc(O)c(CC=C(C)C)c(O)c1C(=O)/C=C/c1ccc(O)cc1 [xanthohumol, reference compound] | did not affect viral infectivity | – | – | – | – | – | – | – | – | – | no virucidal activity | – | – | – | inhibit Zika virus replication | > 5
